# Assay results: publication PMC8292346, “Dysfunction of the key ferroptosis-surveilling systems hypersensitizes mice to tubular necrosis during acute kidney injury” (Nature Communications, 2021)
# Read-outs that look alike come from different tables or passages of the source.
# Legend:
# [1] = system: Na+ channel (site 2); assay: Off-target radioligand binding screen; conditions: Nec-1f 10 µM
# [2] = molecular target: V1a(h) (Homo sapiens, UniProt P37288); assay: Off-target radioligand binding screen; conditions: read-out: V1a(h) (#): inhibition of radioligand binding
# [3] = Pharmacokinetic analysis of Nec-1f in mice (tissue PK); type: in vivo, C57BL/6 mice; conditions: for concentration at 120 min: sample collection 120 min
# [4] = sample collection 240 min, individual mice
# [5] = sample collection 360 min, individual mice
# [6] = sample collection 480 min, individual mice
# [7] = sample collection 1440 min, individual mice
# Sequence of V1a(h) (P37288 whole entry): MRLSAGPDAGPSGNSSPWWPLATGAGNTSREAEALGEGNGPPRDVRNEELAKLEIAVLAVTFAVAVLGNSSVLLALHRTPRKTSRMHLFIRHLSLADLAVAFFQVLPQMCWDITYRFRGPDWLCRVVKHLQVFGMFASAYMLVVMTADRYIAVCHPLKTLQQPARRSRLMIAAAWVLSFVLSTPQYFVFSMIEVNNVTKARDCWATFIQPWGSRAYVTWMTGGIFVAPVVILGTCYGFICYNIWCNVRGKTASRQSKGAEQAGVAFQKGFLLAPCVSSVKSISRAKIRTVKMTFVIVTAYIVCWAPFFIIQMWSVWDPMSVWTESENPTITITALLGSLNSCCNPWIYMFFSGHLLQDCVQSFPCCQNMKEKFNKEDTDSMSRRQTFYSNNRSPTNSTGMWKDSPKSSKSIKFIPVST
smiles,measurement,setting,value
CN1C(=O)C(Cc2c[nH]c3c(Cl)cccc23)NC1=S (stereo not shown) [Nec-1f],Na+ channel (site 2) ($): inhibition of radioligand binding,[1],-14.5%
same,inhibition at 10 µM,[2],29.3%
same,concentration in blood,[3]; [4],0 ng/mL
same,concentration in blood,[3]; [5],0 ng/mL
same,concentration in blood,[3]; [6],0 ng/mL
same,concentration in blood,[3]; [7],0 ng/mL
same,concentration in brain,"[3]; brain, sample collection 240 min, individual mice",0 ng/mL
same,concentration in brain,"[3]; brain, sample collection 360 min, individual mice",0 ng/mL
same,concentration in brain,"[3]; brain, sample collection 480 min, individual mice",0 ng/mL
same,concentration in brain,"[3]; brain, sample collection 1440 min, individual mice",0 ng/mL
same,concentration in heart,"[3]; heart, sample collection 0 min, individual mice",0 ng/mL
same,concentration in heart,"[3]; heart, sample collection 240 min, individual mice",0 ng/mL
same,concentration in heart,"[3]; heart, sample collection 360 min, individual mice",0 ng/mL
same,concentration in heart,"[3]; heart, sample collection 480 min, individual mice",0 ng/mL
same,concentration in heart,"[3]; heart, sample collection 1440 min, individual mice",0 ng/mL
same,concentration in kidney,"[3]; kidney, sample collection 0 min, individual mice",0 ng/mL
same,concentration in kidney,"[3]; kidney, sample collection 240 min, individual mice",0 ng/mL
same,concentration in kidney,"[3]; kidney, sample collection 360 min, individual mice",0 ng/mL
same,concentration in kidney,"[3]; kidney, sample collection 480 min, individual mice",0 ng/mL
same,concentration in kidney,"[3]; kidney, sample collection 1440 min, individual mice",0 ng/mL
same,concentration in liver,"[3]; liver, sample collection 0 min, individual mice",0 ng/mL
same,concentration in liver,"[3]; liver, sample collection 240 min, individual mice",0 ng/mL
same,concentration in liver,"[3]; liver, sample collection 360 min, individual mice",0 ng/mL
same,concentration in liver,"[3]; liver, sample collection 480 min, individual mice",0 ng/mL
same,concentration in liver,"[3]; liver, sample collection 1440 min, individual mice",0 ng/mL
same,concentration in lung,"[3]; sample collection 0 min, individual mice",0 ng/mL
same,concentration in lung,[3]; [4],0 ng/mL
same,concentration in lung,[3]; [5],0 ng/mL
same,concentration in lung,[3]; [6],0 ng/mL
same,concentration in lung,[3]; [7],0 ng/mL
same,concentration at 240 min,"[3]; male, C57BL/6, mouse, brain, intraperitoneal, 2 mg/kg, brain, sample collection 240 min, individual mice, read-out: concentration in brain",0 ng/mL
same,concentration at 360 min,"[3]; male, C57BL/6, mouse, brain, intraperitoneal, 2 mg/kg, brain, sample collection 360 min, individual mice, read-out: concentration in brain",0 ng/mL
same,concentration at 480 min,"[3]; male, C57BL/6, mouse, brain, intraperitoneal, 2 mg/kg, brain, sample collection 480 min, individual mice, read-out: concentration in brain",0 ng/mL
same,concentration at 0 min,"[3]; male, C57BL/6, mouse, brain, intraperitoneal, 2 mg/ml, brain, sample collection 0 min, individual mice, read-out: concentration in brain",0 ng/mL
same,concentration at 5 min,"[3]; male, C57BL/6, mouse, brain, intraperitoneal, 2 mg/ml, brain, sample collection 5 min, individual mice, read-out: concentration in brain",11 ng/mL
same,concentration at 15 min,"[3]; male, C57BL/6, mouse, brain, intraperitoneal, 2 mg/ml, brain, sample collection 15 min, individual mice, read-out: concentration in brain",23 ng/mL
same,concentration at 120 min,"[3]; male, C57BL/6, mouse, brain, intraperitoneal, 2 mg/ml, brain, individual mice, read-out: concentration in brain",11 ng/mL
same,concentration at 1440 min,"[3]; male, C57BL/6, mouse, brain, intraperitoneal, 2 mg/ml, brain, sample collection 1440 min, individual mice, read-out: concentration in brain",0 ng/mL
same,concentration at 240 min,"[3]; male, C57BL/6, mouse, heart, intraperitoneal, 2 mg/kg, heart, sample collection 240 min, individual mice, read-out: concentration in heart",0 ng/mL
same,concentration at 360 min,"[3]; male, C57BL/6, mouse, heart, intraperitoneal, 2 mg/kg, heart, sample collection 360 min, individual mice, read-out: concentration in heart",0 ng/mL
same,concentration at 480 min,"[3]; male, C57BL/6, mouse, heart, intraperitoneal, 2 mg/kg, heart, sample collection 480 min, individual mice, read-out: concentration in heart",0 ng/mL
same,concentration at 1440 min,"[3]; male, C57BL/6, mouse, heart, intraperitoneal, 2 mg/kg, heart, sample collection 1440 min, individual mice, read-out: concentration in heart",0 ng/mL
same,concentration at 0 min,"[3]; male, C57BL/6, mouse, heart, intraperitoneal, heart, sample collection 0 min, individual mice, read-out: concentration in heart",0 ng/mL
same,concentration at 120 min,"[3]; male, C57BL/6, mouse, heart, intraperitoneal, heart, individual mice, read-out: concentration in heart",0 ng/mL
same,concentration at 240 min,"[3]; male, C57BL/6, mouse, kidney, intraperitoneal, 2 mg/kg, kidney, sample collection 240 min, individual mice, read-out: concentration in kidney",0 ng/mL
same,concentration at 360 min,"[3]; male, C57BL/6, mouse, kidney, intraperitoneal, 2 mg/kg, kidney, sample collection 360 min, individual mice, read-out: concentration in kidney",0 ng/mL
same,concentration at 480 min,"[3]; male, C57BL/6, mouse, kidney, intraperitoneal, 2 mg/kg, kidney, sample collection 480 min, individual mice, read-out: concentration in kidney",0 ng/mL
same,concentration at 1440 min,"[3]; male, C57BL/6, mouse, kidney, intraperitoneal, 2 mg/kg, kidney, sample collection 1440 min, individual mice, read-out: concentration in kidney",0 ng/mL
same,concentration at 0 min,"[3]; male, C57BL/6, mouse, kidney, intraperitoneal, 2 mg/ml, kidney, sample collection 0 min, individual mice, read-out: concentration in kidney",0 ng/mL
same,concentration at 120 min,"[3]; male, C57BL/6, mouse, kidney, intraperitoneal, 2 mg/ml, kidney, individual mice, read-out: concentration in kidney",0 ng/mL
same,concentration at 30 min,"[3]; male, C57BL/6, mouse, kidney, intraperitoneal, 2 mg/ml, sample collection 30 min, individual mice",51 ng/mL
same,half-life,"[3]; male, C57BL/6, mouse, kidney, ip, mice, single i.p. injection 2 mg/kg",3.52 h
same,concentration at 240 min,"[3]; male, C57BL/6, mouse, liver, intraperitoneal, 2 mg/kg, liver, sample collection 240 min, individual mice, read-out: concentration in liver",0 ng/mL
same,concentration at 360 min,"[3]; male, C57BL/6, mouse, liver, intraperitoneal, 2 mg/kg, liver, sample collection 360 min, individual mice, read-out: concentration in liver",0 ng/mL
same,concentration at 480 min,"[3]; male, C57BL/6, mouse, liver, intraperitoneal, 2 mg/kg, liver, sample collection 480 min, individual mice, read-out: concentration in liver",0 ng/mL
